Results: patent US7335814B2, “Transgenic cells expressing glucosyltransferase nucleic acids” (The University of York, priority 2000, dated 2008)

Columns and labels:
Type in all cases: biochemical
[1] = biological target: T1, UGT71C1 (Arabidopsis thaliana, UniProt O82381); assay: UGT71C1 glucosyltransferase specific activity towards phenolic compounds (reverse-phase HPLC); conditions: 1 mM phenolic compound, 5 mM UDP-glucose, 50 mM TRIS-HCl pH 7.0, 30° C., 30 min; mean of three replicates ± standard deviation
T1 construct: GST (N); made in house; host or cells: E. coli
T1 sequence (O82381 1-481): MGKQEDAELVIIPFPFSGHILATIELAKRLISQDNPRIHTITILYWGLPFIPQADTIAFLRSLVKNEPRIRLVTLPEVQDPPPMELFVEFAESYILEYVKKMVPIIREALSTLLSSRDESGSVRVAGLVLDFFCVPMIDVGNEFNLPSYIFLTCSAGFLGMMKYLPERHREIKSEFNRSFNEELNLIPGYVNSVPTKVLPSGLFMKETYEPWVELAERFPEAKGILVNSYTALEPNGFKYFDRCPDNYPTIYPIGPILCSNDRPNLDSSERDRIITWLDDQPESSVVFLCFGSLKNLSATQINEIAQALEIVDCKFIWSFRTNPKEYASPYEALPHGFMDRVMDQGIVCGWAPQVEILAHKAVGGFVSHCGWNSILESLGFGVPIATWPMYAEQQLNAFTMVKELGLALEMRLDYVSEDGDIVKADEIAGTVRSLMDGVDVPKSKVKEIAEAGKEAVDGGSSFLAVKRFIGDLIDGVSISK

[2] = biological target: T2, recombinant GTase A233 (Arabidopsis thaliana, UniProt Q8W491); assay: Specific activity of recombinant GTase producing O-glucosides against lignin precursors (HPLC); conditions: 30° C.; ND = not detected
T2 construct: made in house; host or cells: E. coli

[3] = biological target: T3, recombinant GTase A407 (Arabidopsis thaliana, UniProt O81498); assay: as above; conditions: 30° C.; ND = not detected
T3 construct: made in house; host or cells: E. coli
T3 sequence (O81498 1-481): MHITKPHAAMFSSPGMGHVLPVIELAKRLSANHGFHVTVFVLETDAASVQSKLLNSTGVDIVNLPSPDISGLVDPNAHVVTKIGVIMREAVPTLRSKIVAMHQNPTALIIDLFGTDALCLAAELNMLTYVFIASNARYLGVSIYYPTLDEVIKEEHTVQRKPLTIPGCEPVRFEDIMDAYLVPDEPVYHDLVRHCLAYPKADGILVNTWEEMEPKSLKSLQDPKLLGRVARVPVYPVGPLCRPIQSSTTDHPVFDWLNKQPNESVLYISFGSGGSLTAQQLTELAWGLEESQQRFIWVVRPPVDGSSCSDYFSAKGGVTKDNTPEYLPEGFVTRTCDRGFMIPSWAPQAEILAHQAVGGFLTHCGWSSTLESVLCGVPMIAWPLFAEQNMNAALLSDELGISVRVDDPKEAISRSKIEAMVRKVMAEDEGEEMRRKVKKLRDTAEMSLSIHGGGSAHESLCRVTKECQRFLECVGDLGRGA

[4] = biological target: T4, recombinant GTase A961 (Arabidopsis thaliana, UniProt O82381); assay: as above; conditions: 30° C.; ND = not detected
T4 construct: made in house; host or cells: E. coli
T4 sequence (O82381 1-481): T1 sequence (O82381 1-481)

[5] = biological target: T5, recombinant GTase A962 (Arabidopsis thaliana, UniProt O82382); assay: as above; conditions: 30° C.; ND = not detected
T5 construct: made in house; host or cells: E. coli
T5 sequence (O82382 1-474): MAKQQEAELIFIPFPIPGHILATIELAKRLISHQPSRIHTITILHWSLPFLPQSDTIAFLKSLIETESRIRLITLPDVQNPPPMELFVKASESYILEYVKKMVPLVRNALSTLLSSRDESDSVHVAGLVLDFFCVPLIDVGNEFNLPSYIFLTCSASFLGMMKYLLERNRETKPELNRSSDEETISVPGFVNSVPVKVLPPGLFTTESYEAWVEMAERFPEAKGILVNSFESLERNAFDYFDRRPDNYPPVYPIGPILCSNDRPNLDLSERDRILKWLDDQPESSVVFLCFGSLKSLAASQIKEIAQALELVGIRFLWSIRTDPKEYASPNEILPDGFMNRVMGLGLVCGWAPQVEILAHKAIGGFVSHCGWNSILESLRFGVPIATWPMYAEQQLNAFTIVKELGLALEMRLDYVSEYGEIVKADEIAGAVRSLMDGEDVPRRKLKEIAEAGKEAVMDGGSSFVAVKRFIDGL

[6] = biological target: T6, recombinant GTase A119 (Arabidopsis thaliana, UniProt Q9LVR1); assay: as above; conditions: 30° C.; ND = not detected
T6 construct: made in house; host or cells: E. coli
T6 sequence (Q9LVR1 1-481): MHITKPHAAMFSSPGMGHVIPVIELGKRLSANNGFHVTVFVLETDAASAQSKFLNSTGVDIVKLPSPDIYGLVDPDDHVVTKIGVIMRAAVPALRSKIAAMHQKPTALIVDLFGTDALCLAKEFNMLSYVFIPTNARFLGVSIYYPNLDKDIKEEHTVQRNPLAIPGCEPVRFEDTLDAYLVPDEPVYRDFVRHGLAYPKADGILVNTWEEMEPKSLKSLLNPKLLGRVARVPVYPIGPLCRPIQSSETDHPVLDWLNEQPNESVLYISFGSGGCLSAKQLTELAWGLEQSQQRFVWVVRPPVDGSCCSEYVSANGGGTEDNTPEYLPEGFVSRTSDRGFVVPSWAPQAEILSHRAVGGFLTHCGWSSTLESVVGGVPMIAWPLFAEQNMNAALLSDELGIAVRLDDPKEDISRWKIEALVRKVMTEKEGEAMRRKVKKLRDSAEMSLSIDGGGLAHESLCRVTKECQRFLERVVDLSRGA

[7] = biological target: T7, recombinant GTase A41 (Arabidopsis thaliana, UniProt Q5XF20); assay: Specific activity of recombinant GTase producing glucose ester against lignin precursors (HPLC); conditions: 5 mM UDPG, 0.2 μg GTase, 200 μl, 20° C., 30 min
T7 construct: made in house; host or cells: E. coli
T7 sequence (Q5XF20 7-490): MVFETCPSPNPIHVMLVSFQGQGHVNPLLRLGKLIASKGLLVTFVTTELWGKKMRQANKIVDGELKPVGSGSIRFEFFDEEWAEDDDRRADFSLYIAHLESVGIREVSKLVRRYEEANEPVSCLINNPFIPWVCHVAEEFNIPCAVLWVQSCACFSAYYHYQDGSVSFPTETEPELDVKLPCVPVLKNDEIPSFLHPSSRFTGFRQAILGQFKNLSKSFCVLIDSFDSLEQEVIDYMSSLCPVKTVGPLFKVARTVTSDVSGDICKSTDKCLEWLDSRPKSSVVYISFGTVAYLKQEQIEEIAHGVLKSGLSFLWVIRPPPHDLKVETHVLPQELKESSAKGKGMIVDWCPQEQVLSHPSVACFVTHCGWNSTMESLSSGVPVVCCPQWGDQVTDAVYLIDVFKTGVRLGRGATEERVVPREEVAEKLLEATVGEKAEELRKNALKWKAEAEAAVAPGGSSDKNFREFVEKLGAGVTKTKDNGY

[8] = biological target: T8, recombinant GTase A43 (Arabidopsis thaliana, UniProt O23402); assay: as above; conditions: 0.5 ml of potential substrates, 5 mM UDPG, 0.2 μg GTase, 200 μl, 20° C., 30 min
T8 construct: made in house; host or cells: E. coli

[9] = biological target: T9, recombinant GTase A062 (Arabidopsis thaliana, UniProt Q9LR44); assay: as above; conditions: 0.5 ml of potential substrates, 5 mM UDPG, 0.2 μg GTase, 200 μl, 20° C., 30 min
T9 construct: made in house; host or cells: E. coli
T9 sequence (Q9LR44 1-469): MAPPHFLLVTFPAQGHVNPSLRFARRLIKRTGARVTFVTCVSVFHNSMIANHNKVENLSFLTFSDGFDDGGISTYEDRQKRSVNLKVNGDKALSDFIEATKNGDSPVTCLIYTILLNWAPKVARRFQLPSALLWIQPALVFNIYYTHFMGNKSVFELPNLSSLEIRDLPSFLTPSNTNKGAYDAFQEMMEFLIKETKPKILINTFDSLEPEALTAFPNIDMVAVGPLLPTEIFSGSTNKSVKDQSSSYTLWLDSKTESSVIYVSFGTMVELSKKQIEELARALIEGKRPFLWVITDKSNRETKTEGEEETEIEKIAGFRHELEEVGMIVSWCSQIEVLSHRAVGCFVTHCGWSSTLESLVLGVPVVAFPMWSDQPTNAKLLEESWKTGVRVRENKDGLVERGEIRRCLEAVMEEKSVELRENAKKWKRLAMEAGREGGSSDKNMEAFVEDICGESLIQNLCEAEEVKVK

[10] = biological target: T10, recombinant GTase A911 (Arabidopsis thaliana, UniProt O22182); assay: as above; design: made in house; host or cells: E. coli; conditions: 0.5 ml of potential substrates, 5 mM UDPG, 0.2 μg GTase, 200 μl, 20° C., 30 min
T10 sequence (O22182 1-456): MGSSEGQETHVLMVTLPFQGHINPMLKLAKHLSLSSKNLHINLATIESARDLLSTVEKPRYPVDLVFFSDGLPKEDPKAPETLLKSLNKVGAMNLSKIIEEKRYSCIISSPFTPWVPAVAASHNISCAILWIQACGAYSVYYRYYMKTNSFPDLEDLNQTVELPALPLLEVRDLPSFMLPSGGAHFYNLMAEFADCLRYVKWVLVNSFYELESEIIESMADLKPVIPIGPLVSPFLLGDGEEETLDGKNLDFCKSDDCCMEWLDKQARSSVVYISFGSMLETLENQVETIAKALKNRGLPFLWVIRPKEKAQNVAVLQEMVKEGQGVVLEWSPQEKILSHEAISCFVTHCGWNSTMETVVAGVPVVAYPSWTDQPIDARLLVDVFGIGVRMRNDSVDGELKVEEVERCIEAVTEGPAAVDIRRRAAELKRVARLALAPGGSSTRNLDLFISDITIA

Specific activity (UGT71C1) [1]	Compound	Specific activity of A961 (substrate converted to 4-O-glucoside) [4]	Specific activity of A962 (substrate converted to 4-O-glucoside) [5]	other results
0 nkat/mg	O=C(O)c1ccc(O)cc1 [4-hydroxybenzoic acid]			
	COc1cc(/C=C/CO)ccc1O [Coniferyl alcohol, coniferyl alcohol]	0.57 nkat/mg	0.49 nkat/mg	Specific activity of A233 (substrate converted to 4-O-glucoside) [2]: 0.46 nkat/mg; Specific activity of A407 (substrate converted to 4-O-glucoside) [3]: 2.78 nkat/mg
	COc1cc(/C=C/C=O)ccc1O [Coniferyl aldehyde, coniferyl aldehyde]	0.16 nkat/mg	0.34 nkat/mg	Specific activity of A119 (substrate converted to 4-O-glucoside) [6]: 1.08 nkat/mg
0 nkat/mg	O=C1C[C@@H](c2ccc(O)c(O)c2)Oc2cc(O)cc(O)c21 [Eriodictyol]			
34.8 ± 4.2 nkat/mg	O=c1ccc2cc(O)c(O)cc2o1 [Esculetin]			
0.7 ± 0.1 nkat/mg	O=c1cc(-c2ccc(O)c(O)c2)oc2cc(O)cc(O)c12 [Luteolin]			
1.4 ± 0.4 nkat/mg	O=c1c(O)c(-c2ccc(O)c(O)c2)oc2cc(O)cc(O)c12 [Quercetin]			
29.4 ± 3.9 nkat/mg	COc1cc2ccc(=O)oc2cc1O [Scopoletin]			
1.2 ± 0.2 nkat/mg	O=C(O)/C=C/c1cccc(O)c1 [m-Coumaric acid]			
1.5 ± 0.2 nkat/mg	O=C(O)/C=C/c1ccccc1O [o-Coumaric acid]			
	O=C/C=C/c1ccc(O)cc1 [p-coumaryl aldehyde]	0.01 nkat/mg	0.02 nkat/mg	Specific activity of A119 (substrate converted to 4-O-glucoside) [6]: 0.03 nkat/mg
	COc1cc(/C=C/CO)cc(OC)c1O [sinapyl alcohol]	0.35 nkat/mg	0.45 nkat/mg	Specific activity of A233 (substrate converted to 4-O-glucoside) [2]: 0.05 nkat/mg; Specific activity of A119 (substrate converted to 4-O-glucoside) [6]: 126.16 nkat/mg; Specific activity of A407 (substrate converted to 4-O-glucoside) [3]: 114.76 nkat/mg
	COc1cc(/C=C/C=O)cc(OC)c1O [sinapyl aldehyde]	0.57 nkat/mg	0.50 nkat/mg	Specific activity of A119 (substrate converted to 4-O-glucoside) [6]: 4.55 nkat/mg

Compound	Specific activity (UGT71C1) [1]	Specific activity of A961 (substrate converted to 4-O-glucoside) [4]	Specific activity of A962 (substrate converted to 4-O-glucoside) [5]	other results
O=C(O)c1ccc(O)c(O)c1 [3,4-dihydroxybenzoic acid]	0 nkat/mg			
COc1cc(/C=C/C(=O)O)cc(OC)c1O [Sinapic acid, sinapic acid]	0 nkat/mg	0.01 nkat/mg	0.01 nkat/mg	Specific activity of A41 (substrate converted to glucose ester) [7]: 5.35 nkat/mg; Specific activity of A43 (substrate converted to glucose ester) [8]: 0.05 nkat/mg; Specific activity of A062 (substrate converted to glucose ester) [9]: 0.1 nkat/mg; Specific activity of A233 (substrate converted to 4-O-glucoside) [2]: 0.39 nkat/mg; Specific activity of A407 (substrate converted to 4-O-glucoside) [3]: 65.39 nkat/mg; Specific activity of A911 (substrate converted to glucose ester) [10]: 0.15 nkat/mg
Catechin	0 nkat/mg			
